Assay results as given in US20170065564A1, “BIS-CYCLIC GUANIDINE COMPOUND COMPOSITIONS, METHODS OF USE AND TREATMENT THEREOF” (University of South Florida, priority 2014, published 2017).

Key:
MRSA cells = test: Time kill assay (lysis by OD600, viability by CFU); type: cell-based, Staphylococcus aureus; conditions: for cell recovery (viability, CFU/mL vs no drug control): after the 120 minute assay, agent washed out; for cells remaining after exposure (optical density relative to starting values): MRSA, 2.0% SDS, 0.001% benzalkonium chloride, 0.001% benzethonium chloride
Description: FIGS. 6A and 6B illustrates that bis-cyclic guanidines are bactericidal but not bacteriolytic. […] Shown is the optical density of cells relative to starting values from three independent experiments. Error bars are shown ±SEM. FIG. 8B is a graph illustrating cell viability of all samples after the 120 min experiment. Compounds were removed by centrifugation and washing of cells, followed by serial dilution and enumeration. Percent recovery was determined by comparison to no drug (ND) controls.
Time kill assays were performed in a 96-well microtiter plate using a BioTek Synergy2 plate reader. To prepare bacterial cultures, stationary phase MRSA cells were inoculated into fresh TSB and grown for 3 hours. After this time, cultures were inoculated into a 96-well microtiter plate at an OD600 of 0.5, followed by the addition of test agent at MIC concentrations. In parallel, 2.0% sodium dodecyl sulfate (SDS), 0.001% benzalkonium chloride, 0.001% benzethonium chloride, and 4 μM lysostaphin were used as positive controls. […] Assays were performed in triplicate over the span of 130 minutes, with OD600 readings taken every 10 minutes.

ESKAPE pathogens = test: MIC micro broth dilution assay, statements and stacked scores over all ESKAPE pathogens; type: cell-based; conditions: letters E,S,K,A,P,E = ESKAPE pathogens, — = none
Description: (§1) For this study we used a representative panel of multi-drug resistant clinical ESKAPE pathogen isolates (Supplemental Table S6).^42 43 3a, 44 45 Gram-positive organisms were grown in tryptic soy broth media (TSB), whilst Gram-negative organisms were grown in lysogeny Broth (LB), as described by us previously. ^43 MIC and MBC determination assays.
(§2) The minimum inhibitory concentration (MIC) for the combinatorial libraries, deconvolved 2157 library, and individual compounds were determined as follows. Broth cultures of ESKAPE strains were grown overnight before being diluted 1 in 1,000 in fresh media. Sterile 96-well plates were loaded with culture and compounds (in DMF) were added at decreasing concentrations to equal a total volume of 200 μl per well. Care was taken to not add more than 2.0% DMF to any well. Plates were then incubated at 37° C., and MICs determined after 24 hours by visual inspection for a lack of turbidity in wells. All assays were performed in triplicate with identical results obtained. For both the scaffold ranking and positional scanning samples, relative broad-spectrum activity was determined via stacked scores: […]

Klebsiella pneumoniae = test: MIC micro broth dilution assay; type: cell-based; parameters: key to stacked score activity, 100/MIC, K: stacked score = 100/MIC; conditions: K. pneumoniae
Description: as §1
as §2, with “Broth” for “The minimum inhibitory concentration (MIC) for the combinatorial libraries, deconvolved 2157 library, and individual compounds were determined as follows. Broth”

Staphylococcus aureus = test: MIC micro broth dilution assay; type: cell-based; parameters: key to stacked score activity, 100/MIC, S: stacked score = 100/MIC; conditions: S. aureus
Description: as §1
as §2, with “Broth” for “The minimum inhibitory concentration (MIC) for the combinatorial libraries, deconvolved 2157 library, and individual compounds were determined as follows. Broth”

Enterobacter cloacae = test: MIC micro broth dilution assay; type: cell-based; parameters: key to stacked score activity, 100/MIC, E: stacked score = 100/MIC; conditions: E. cloacae
Description: as §1
as §2, with “Broth” for “The minimum inhibitory concentration (MIC) for the combinatorial libraries, deconvolved 2157 library, and individual compounds were determined as follows. Broth”

Enterococcus faecium = test: MIC micro broth dilution assay; type: cell-based; parameters: key to stacked score activity, 100/MIC, E: stacked score = 100/MIC; conditions: E. faecium
Description: as §1
as §2, with “Broth” for “The minimum inhibitory concentration (MIC) for the combinatorial libraries, deconvolved 2157 library, and individual compounds were determined as follows. Broth”

Acinetobacter baumannii = test: MIC micro broth dilution assay; type: cell-based; parameters: key to stacked score activity, 100/MIC, A: stacked score = 100/MIC; conditions: A. baumannii
Description: as §1
as §2, with “Broth” for “The minimum inhibitory concentration (MIC) for the combinatorial libraries, deconvolved 2157 library, and individual compounds were determined as follows. Broth”

lysostaphin: a S. aureus specific lytic agent, positive control
cell recovery (viability, CFU/mL vs no drug control) (MRSA cells): 0%
lysis of MRSA cells (MRSA cells; within 10 minutes of exposure, 4 μM lysostaphin): > 50%

benzalkonium chloride [listing 1 of 2 here]
cell recovery (viability, CFU/mL vs no drug control) (MRSA cells): 0%

benzalkonium chloride [listing 2 of 2 here]
cells remaining after exposure (optical density relative to starting values) (MRSA cells): 28.56%

C[C@H]1c2cccc(O)c2C(=O)C2=C(O)[C@]3(O)C(=O)C(C(N)=O)=C(O)[C@@H](N(C)C)[C@@H]3[C@@H](O)[C@@H]21 [doxycycline]
cell recovery (viability, CFU/mL vs no drug control) (MRSA cells): 92%

CCCCCCCCCCCCOS(=O)(=O)[O-].[Na+] [SDS, sodium dodecyl sulfate]
cells remaining after exposure (optical density relative to starting values) (MRSA cells): 52.2%
cell recovery (viability, CFU/mL vs no drug control) (MRSA cells): 0%

CC(C)(C)CC(C)(C)c1ccc(OCCOCC[N+](C)(C)Cc2ccccc2)cc1 [benzethonium chloride]
cells remaining after exposure (optical density relative to starting values) (MRSA cells): 32.63%
cell recovery (viability, CFU/mL vs no drug control) (MRSA cells): 0%

CCCCCCCN1C(=N)NC[C@@H]1CCCCN1C[C@H](C(C)CC)N(CCc2cccc(C)c2)C1=N (stereo partly drawn) [Compound 32]
pathogens against which the compound showed activity at 25 ug/ml (ESKAPE pathogens): ESAP
stacked score activity, 100/MIC, K (Klebsiella pneumoniae): 0
stacked score activity, 100/MIC, S (Staphylococcus aureus): 33
stacked score activity, 100/MIC, E (Enterobacter cloacae): 0
stacked score activity, 100/MIC, E (Enterococcus faecium): 10
stacked score activity, 100/MIC, A (Acinetobacter baumannii): 4

N=C1NC[C@H](CCCCN2C[C@@H](Cc3cccc4ccccc34)N(CCc3ccc(-c4ccccc4)cc3)C2=N)N1CCCCC1CCCCC1 [Compound 15]
pathogens against which the compound showed activity at 10 ug/ml (ESKAPE pathogens): ESKE
pathogens against which the compound showed activity at 25 ug/ml (ESKAPE pathogens): ESKAPE
stacked score activity, 100/MIC, K (Klebsiella pneumoniae): 10
stacked score activity, 100/MIC, S (Staphylococcus aureus): 20
stacked score activity, 100/MIC, E (Enterobacter cloacae): 20
stacked score activity, 100/MIC, E (Enterococcus faecium): 10
stacked score activity, 100/MIC, A (Acinetobacter baumannii): 4

N=C1NC[C@H](CCCCN2C[C@H](CC3CCCCC3)N(CCc3ccc(-c4ccccc4)cc3)C2=N)N1CCCCC1CCCCC1 [Compound 18]
pathogens against which the compound showed activity at 5 ug/ml (ESKAPE pathogens): ESKAPE
pathogens against which the compound showed activity at 10 ug/ml (ESKAPE pathogens): ESKAPE
pathogens against which the compound showed activity at 25 ug/ml (ESKAPE pathogens): ESKAPE
stacked score activity, 100/MIC, K (Klebsiella pneumoniae): 20
stacked score activity, 100/MIC, S (Staphylococcus aureus): 20
stacked score activity, 100/MIC, E (Enterobacter cloacae): 20
stacked score activity, 100/MIC, E (Enterococcus faecium): 20
stacked score activity, 100/MIC, A (Acinetobacter baumannii): 20

CCCC[C@H]1CN(CCCC[C@H]2CNC(=N)N2CCCCC2CCCCC2)C(=N)N1CCCCC1CCCCC1 [Compound 11]
pathogens against which the compound showed activity at 5 ug/ml (ESKAPE pathogens): ESAPE
pathogens against which the compound showed activity at 10 ug/ml (ESKAPE pathogens): ESKAPE
pathogens against which the compound showed activity at 25 ug/ml (ESKAPE pathogens): ESKAPE
stacked score activity, 100/MIC, K (Klebsiella pneumoniae): 20
stacked score activity, 100/MIC, S (Staphylococcus aureus): 20
stacked score activity, 100/MIC, E (Enterobacter cloacae): 20
stacked score activity, 100/MIC, E (Enterococcus faecium): 50
stacked score activity, 100/MIC, A (Acinetobacter baumannii): 25

CCCC[C@H]1CN(CCCC[C@H]2CNC(=N)N2CCc2cccc(C(F)(F)F)c2)C(=N)N1CCc1ccc(-c2ccccc2)cc1 [Compound 3]
pathogens against which the compound showed activity at 4 ug/ml (ESKAPE pathogens): ESKA
pathogens against which the compound showed activity at 5 ug/ml (ESKAPE pathogens): ESKAPE
pathogens against which the compound showed activity at 10 ug/ml (ESKAPE pathogens): ESKAPE
pathogens against which the compound showed activity at 25 ug/ml (ESKAPE pathogens): ESKAPE
stacked score activity, 100/MIC, K (Klebsiella pneumoniae): 25
stacked score activity, 100/MIC, S (Staphylococcus aureus): 33
stacked score activity, 100/MIC, E (Enterobacter cloacae): 20
stacked score activity, 100/MIC, E (Enterococcus faecium): 25
stacked score activity, 100/MIC, A (Acinetobacter baumannii): 25

CCCCCCCN1C(=N)N(CCCC[C@H]2CNC(=N)N2CCC23CC4CC(CC(C4)C2)C3)C[C@@H]1CC1CCCCC1 [Compound 25]
pathogens against which the compound showed activity at 4 ug/ml (ESKAPE pathogens): EAP
pathogens against which the compound showed activity at 5 ug/ml (ESKAPE pathogens): ESKAPE
pathogens against which the compound showed activity at 10 ug/ml (ESKAPE pathogens): ESKAPE
pathogens against which the compound showed activity at 25 ug/ml (ESKAPE pathogens): ESKAPE
stacked score activity, 100/MIC, K (Klebsiella pneumoniae): 20
stacked score activity, 100/MIC, S (Staphylococcus aureus): 20
stacked score activity, 100/MIC, E (Enterobacter cloacae): 20
stacked score activity, 100/MIC, E (Enterococcus faecium): 50
stacked score activity, 100/MIC, A (Acinetobacter baumannii): 25

N=C1NC[C@H](CCCCN2C[C@@H](Cc3cccc4ccccc34)N(CCCCC3CCCCC3)C2=N)N1CCC12CC3CC(CC(C3)C1)C2 [Compound 23]
pathogens against which the compound showed activity at 25 ug/ml (ESKAPE pathogens): ESE
stacked score activity, 100/MIC, K (Klebsiella pneumoniae): 0
stacked score activity, 100/MIC, S (Staphylococcus aureus): 25
stacked score activity, 100/MIC, E (Enterobacter cloacae): 0
stacked score activity, 100/MIC, E (Enterococcus faecium): 4
stacked score activity, 100/MIC, A (Acinetobacter baumannii): 0

N=C1NC[C@H](CCCCN2C[C@H](CC3CCCCC3)N(CCCCC3CCCCC3)C2=N)N1CCCCC1CCCCC1 [Compound 17]
pathogens against which the compound showed activity at 5 ug/ml (ESKAPE pathogens): ESKAPE
pathogens against which the compound showed activity at 10 ug/ml (ESKAPE pathogens): ESKAPE
pathogens against which the compound showed activity at 25 ug/ml (ESKAPE pathogens): ESKAPE
stacked score activity, 100/MIC, K (Klebsiella pneumoniae): 20
stacked score activity, 100/MIC, S (Staphylococcus aureus): 20
stacked score activity, 100/MIC, E (Enterobacter cloacae): 20
stacked score activity, 100/MIC, E (Enterococcus faecium): 20
stacked score activity, 100/MIC, A (Acinetobacter baumannii): 20

N=C1NC[C@H](CCCCN2C[C@@H](Cc3cccc4ccccc34)N(CCc3ccc(-c4ccccc4)cc3)C2=N)N1CCc1cccc(C(F)(F)F)c1 [Compound 6]
pathogens against which the compound showed activity at 5 ug/ml (ESKAPE pathogens): SKAE
pathogens against which the compound showed activity at 10 ug/ml (ESKAPE pathogens): ESKAE
pathogens against which the compound showed activity at 25 ug/ml (ESKAPE pathogens): ESKAPE
stacked score activity, 100/MIC, K (Klebsiella pneumoniae): 20
stacked score activity, 100/MIC, S (Staphylococcus aureus): 20
stacked score activity, 100/MIC, E (Enterobacter cloacae): 20
stacked score activity, 100/MIC, E (Enterococcus faecium): 10
stacked score activity, 100/MIC, A (Acinetobacter baumannii): 20

CCC(C)[C@H]1CN(CCCC[C@H]2CNC(=N)N2CC2CCC(C)CC2)C(=N)N1CCc1cccc(C)c1 (stereo partly drawn) [Compound 50]
pathogens against which the compound showed activity at 25 ug/ml (ESKAPE pathogens): ESA
stacked score activity, 100/MIC, K (Klebsiella pneumoniae): 0
stacked score activity, 100/MIC, S (Staphylococcus aureus): 10
stacked score activity, 100/MIC, E (Enterobacter cloacae): 0
stacked score activity, 100/MIC, E (Enterococcus faecium): 10
stacked score activity, 100/MIC, A (Acinetobacter baumannii): 4
